Data set [1] is described as follows: Dissociation constant, pKa of the compound. The format is physicochemical.
Data set [2] concerns the target T1, Beta-secretase 1 (Homo sapiens, UniProt P56817). Description: Inhibition of human BACE-1.
For data set [3], the target named is Cathepsin D (Homo sapiens, UniProt P07339). Description: Inhibition of human cathepsin D.
For data set [4], the system named is MDR1 (P-gp). Description: Permeability from apical to basolateral side in dog MDCK cells expressing human MDR-1 gene. The format is ADME, cell-based, Canis lupus familiaris. The note with it: read-out: permeability.
Data set [5] concerns MDR1 (P-gp). Description: Permeability from basolateral to apical side in dog MDCK cells expressing human MDR-1 gene. The note with it: read-out: permeability. The format is ADME, cell-based, Canis lupus familiaris.
Data set [6] relates to MDR1 (P-gp). Description: Efflux ratio of permeability from basolateral to apical side to apical to basolateral side of dog MDCK cells expressing human MDR1. The format is ADME, cell-based, Canis lupus familiaris.
Data set [7] deals with T1, Beta-secretase 1. Description: Inhibition of human BACE-1-mediated amyloid beta 40 release in APP-transfected […] cells. The format is cell-based.
The nature of data set [8]: Metabolic stability in rat liver microsomes assessed as half life. The format is ADME, Microsome. (Microsomes from liver hold many membrane-bound enzymes, among them those of drug oxidation.)
For data set [9], the species on record is Homo sapiens. Description: Selectivity ratio of IC50 for human cathepsin D to IC50 for human BACE-1.
Data set [10] has as its system Brain. Description: Drug level in brain of mouse at 2 umol/kg, iv. The format is ADME, organism-based. The note with it: in vivo, read-out: Drug uptake.
Data set [11] concerns Plasma. Description: Drug level in plasma of mouse at 2 umol/kg, iv. The format is ADME. The conditions noted are these: read-out: Drug uptake.

T1 sequence (P56817 whole entry): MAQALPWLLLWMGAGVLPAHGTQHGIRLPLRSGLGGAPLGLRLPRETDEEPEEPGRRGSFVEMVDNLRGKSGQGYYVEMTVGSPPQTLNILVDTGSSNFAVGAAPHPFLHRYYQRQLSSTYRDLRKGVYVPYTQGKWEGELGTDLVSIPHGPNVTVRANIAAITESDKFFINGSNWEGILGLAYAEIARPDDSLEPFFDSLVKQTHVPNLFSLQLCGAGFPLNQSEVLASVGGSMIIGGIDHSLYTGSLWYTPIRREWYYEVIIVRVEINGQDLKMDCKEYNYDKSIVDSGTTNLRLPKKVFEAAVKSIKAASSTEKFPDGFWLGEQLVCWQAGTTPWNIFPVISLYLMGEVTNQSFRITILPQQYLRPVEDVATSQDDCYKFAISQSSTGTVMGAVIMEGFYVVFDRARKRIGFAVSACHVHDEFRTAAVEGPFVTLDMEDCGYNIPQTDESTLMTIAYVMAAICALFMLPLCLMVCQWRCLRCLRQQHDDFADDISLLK
Cathepsin D, sequence (P07339 65-162 limits assumed): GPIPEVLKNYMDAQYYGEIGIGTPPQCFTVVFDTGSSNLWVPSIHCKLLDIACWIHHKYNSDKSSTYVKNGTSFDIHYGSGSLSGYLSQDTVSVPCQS
Cathepsin D, sequence (P07339 169-412 limits assumed): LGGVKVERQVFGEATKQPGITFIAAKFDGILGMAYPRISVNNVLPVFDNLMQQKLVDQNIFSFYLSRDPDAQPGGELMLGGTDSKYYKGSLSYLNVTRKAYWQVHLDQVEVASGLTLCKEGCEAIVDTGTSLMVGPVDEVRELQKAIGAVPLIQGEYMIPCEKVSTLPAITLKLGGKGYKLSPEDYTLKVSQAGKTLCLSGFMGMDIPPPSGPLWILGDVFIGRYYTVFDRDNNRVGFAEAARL

`O=S1(=O)C[C@@H](Cc2ccc(O)c(Br)c2)[C@H](O)[C@@H](NCc2cccc(C3CC3)c2)C1` had a pKa in [1] of 5.7.

For the compound `CC(C)c1cccc(CN[C@H]2CS(=O)(=O)C[C@@H](Cc3cccc(Br)c3)[C@@H]2O)c1` (racemic), the IC50 turned out to be 760 nM in [2] and 2300 nM in data set [3]. In addition, in data set [4], the Papp A→B is 5.4 ×10⁻⁶ cm/s. The Papp B→A in [5] worked out at 7.7 ×10⁻⁶ cm/s. For the same compound, the efflux ratio in data set [6] came to 1.4.

Turning to `CC(=O)N[C@@H](Cc1cc(F)cc(F)c1)[C@H](O)CNCc1cccc(C(C)C)c1`, the IC50 was determined as 3200 nM in data set [2] and 4700 nM in [3]. For the same compound, the Papp A→B in [4] is 2.2 ×10⁻⁶ cm/s. In addition, in data set [5], the Papp B→A was 41 ×10⁻⁶ cm/s. The efflux ratio in [6] stood at 18.

Take `CC(C)c1cccc(CN[C@H]2CS(=O)(=O)C[C@@H](Cc3ccc(O)c(Br)c3)[C@@H]2O)c1`: the results for the IC50 in data set [2], in [3] and in data set [7] were 300 nM, 1200 nM and 1500 nM, respectively. For the same compound, in data set [4], the Papp A→B came to 11 ×10⁻⁶ cm/s. The Papp B→A in data set [5] came out at 33 ×10⁻⁶ cm/s. In addition, the efflux ratio in data set [6] is 3. For the same compound, the half-life in [8] was 3 min. Further, the Ratio IC50 in [9] was found to be 10. Besides, the concentration in data set [10] worked out at 210 nM; in [11] it was 1030 nM.

`CC(C)c1cccc(CN[C@H]2CS(=O)(=O)C[C@@H](Cc3ccc(O)c(CCO)c3)[C@@H]2O)c1`: the IC50 in data set [2] stood at 990 nM; in data set [3] it was 1700 nM. For the same compound, the Papp A→B in data set [4] was found to be 0.9 ×10⁻⁶ cm/s. Moreover, the Papp B→A in [5] was 28 ×10⁻⁶ cm/s. Moreover, in data set [6], the efflux ratio was 32.

For `CCCOc1cccc(C[C@@H]2CS(=O)(=O)C[C@H](NCc3cccc(C(C)C)c3)[C@H]2O)c1` (racemic), the IC50 in data set [2] was 2300 nM; in [3] it was 2000 nM. The Papp A→B in data set [4] was 5.7 ×10⁻⁶ cm/s. Moreover, the Papp B→A in data set [5] turned out to be 7.9 ×10⁻⁶ cm/s. In addition, the efflux ratio in data set [6] came to 1.4.

Consider `Cc1cccc(Cc2cc(C[C@@H]3CS(=O)(=O)C[C@H](NCc4cccc(C(C)C)c4)[C@H]3O)ccc2O)c1` (racemic), for which the IC50 was found to be 6200 nM in [2] and 7100 nM in [3].

As for `CNC(=O)Oc1ccc(C[C@@H]2CS(=O)(=O)C[C@H](NCc3cccc(C(C)C)c3)[C@H]2O)cc1Br`, the figures for the IC50 in data set [2] and in [3] were 60 nM and 370 nM, respectively. Also, the Papp A→B in [4] is 3.8 ×10⁻⁶ cm/s. In addition, in data set [5], the Papp B→A is 88 ×10⁻⁶ cm/s. Moreover, the efflux ratio in data set [6] was 23.

With `CC(C)c1cccc(CN[C@H]2COC[C@@H](Cc3ccc(O)c(Br)c3)[C@@H]2O)c1`, in [1], the pKa amounted to 7.1. Besides, the IC50 in data set [2] amounted to 55000 nM.

The compound `O=S1(=O)C[C@@H](Cc2ccc(O)c(Br)c2)[C@H](O)[C@@H](NCc2cc(Cl)cc(Cl)c2)C1` showed a 50% inhibitory concentration (IC50) in [2] of 4200 nM.

In the case of `CCc1cc(C[C@@H]2CS(=O)(=O)C[C@H](NCc3cccc(C(C)C)c3)[C@H]2O)ccc1O`, the IC50 in [2] is 370 nM; in data set [3], 2400 nM. In addition, the Papp A→B in data set [4] is 15 ×10⁻⁶ cm/s. Also, the Papp B→A in data set [5] was determined as 45 ×10⁻⁶ cm/s. Moreover, the efflux ratio in data set [6] was determined as 3.1.

For `CC(C)c1cccc(CN[C@H]2CS(=O)(=O)C[C@@H](Cc3ccccc3)[C@@H]2O)c1` (racemic), the IC50 is 1100 nM in [2] and 1900 nM in [3]. Also, the Papp A→B in data set [4] was 19 ×10⁻⁶ cm/s. Besides, in data set [5], the Papp B→A was 24 ×10⁻⁶ cm/s. Besides, the efflux ratio in data set [6] came to 1.2.

Turning to `CCCc1cc(C[C@@H]2CS(=O)(=O)C[C@H](NCc3cccc(C(C)C)c3)[C@H]2O)ccc1O`, the IC50 was 190 nM in [2] and 1800 nM in data set [3]. Besides, the Papp A→B in data set [4] was determined as 4.2 ×10⁻⁶ cm/s. For the same compound, in data set [5], the Papp B→A turned out to be 18 ×10⁻⁶ cm/s. For the same compound, the efflux ratio in data set [6] was 4.4.

In the case of `CC(C)c1cccc(CN[C@H]2CS(=O)(=O)C[C@@H](Cc3ccc(O)c(CO)c3)[C@@H]2O)c1`, the IC50 was found to be 1200 nM in data set [2] and 2100 nM in data set [3]. Besides, the Papp A→B in [4] amounted to 1.8 ×10⁻⁶ cm/s. In addition, the Papp B→A in [5] amounted to 30 ×10⁻⁶ cm/s. Besides, the efflux ratio in [6] was 17.

In the case of `CC(C)c1ccnc(CN[C@H]2CS(=O)(=O)C[C@@H](Cc3ccc(O)c(Br)c3)[C@@H]2O)c1`, the IC50 in data set [2] was 4300 nM.

`O=S1(=O)C[C@@H](Cc2ccc(O)c(Br)c2)[C@H](O)[C@@H](NCc2ccccc2)C1` showed an IC50 in data set [2] of 66000 nM.

On to `CCCN1C(=O)OC[C@@H]1Cc1cc(C[C@@H]2CS(=O)(=O)C[C@H](NCc3cccc(C(C)C)c3)[C@H]2O)ccc1O`, for which, in data set [3], the IC50 stood at 6400 nM. Further, the Papp A→B in data set [4] came to 1.4 ×10⁻⁶ cm/s. Besides, the Papp B→A in data set [5] worked out at 26 ×10⁻⁶ cm/s. Besides, in data set [6], the efflux ratio amounted to 19. Moreover, in data set [8], the half-life worked out at 4 min. Also, the concentration in data set [10] is < 50 nM; in data set [11], 670 nM.

Turning to `CC(C)Oc1cccc(CN[C@H]2CS(=O)(=O)C[C@@H](Cc3ccc(O)c(Br)c3)[C@@H]2O)c1`, the IC50 stood at 1400 nM in data set [2], 670 nM in data set [3] and 8500 nM in data set [7].

On to `COc1ccc(C[C@@H]2CS(=O)(=O)C[C@H](NCc3cccc(C(C)C)c3)[C@H]2O)cc1Br`, for which the IC50 in data set [2] is 2800 nM; in [3], 2400 nM. Besides, the Papp A→B in data set [4] was found to be 3.7 ×10⁻⁶ cm/s. In addition, the Papp B→A in [5] was found to be 9.7 ×10⁻⁶ cm/s. Moreover, in data set [6], the efflux ratio was 2.6.

Consider `CCCOCc1cccc(C[C@@H]2CS(=O)(=O)C[C@H](NCc3cccc(C(C)C)c3)[C@H]2O)c1` (racemic), for which the IC50 in [2] is 1100 nM; in data set [3], 900 nM. In addition, the Papp A→B in [4] turned out to be 7 ×10⁻⁶ cm/s. The Papp B→A in data set [5] turned out to be 13 ×10⁻⁶ cm/s. Moreover, the efflux ratio in [6] is 1.8.

With `CC(C)(C)c1cccc(CN[C@H]2CS(=O)(=O)C[C@@H](Cc3ccc(O)c(Br)c3)[C@@H]2O)c1`, the IC50 in [2] was determined as 55 nM; in [3] it was 420 nM; in data set [7] it was 550 nM. For the same compound, the Papp A→B in [4] came to 7.7 ×10⁻⁶ cm/s. For the same compound, the Papp B→A in [5] came to 16 ×10⁻⁶ cm/s. The efflux ratio in data set [6] is 2.1. For the same compound, in [8], the half-life is 6 min. The concentration in data set [10] was determined as 180 nM; in [11] it was 320 nM.

Take `CCCCc1cc(C[C@@H]2CS(=O)(=O)C[C@H](NCc3cccc(C(C)C)c3)[C@H]2O)ccc1O`: the half-inhibitory concentration (IC50) in data set [2] amounted to 150 nM; in data set [3] it was 1900 nM. In addition, the Papp A→B in [4] turned out to be 0.8 ×10⁻⁶ cm/s. For the same compound, in data set [5], the Papp B→A was 4.2 ×10⁻⁶ cm/s. Further, in data set [6], the efflux ratio worked out at 5.5.

Turning to `N[C@H]1CS(=O)(=O)C[C@@H](Cc2ccc(O)c(Br)c2)[C@@H]1O`, the IC50 in [2] was > 100000 nM.

`CC(C)c1cccc(CN[C@H]2CS(=O)(=O)C[C@@H](Cc3ccc(O)cc3)[C@@H]2O)c1` (racemic): the figures for the IC50 in data set [2] and in data set [3] were 1800 nM and 5400 nM, respectively. In data set [4], the Papp A→B was 9 ×10⁻⁶ cm/s. Moreover, the Papp B→A in data set [5] was 37 ×10⁻⁶ cm/s. In [6], the efflux ratio stood at 4.2.

The term pKa denotes the negative logarithm of the acid dissociation constant. A low value points to a stronger acid or weaker base. In general, IC50 refers to the point on the concentration scale where inhibition reaches its midpoint. A higher IC50 goes with lower potency. As usually defined, the efflux ratio is the permeability from basolateral to apical divided by that in the opposite direction, in the common usage. In general, half-life refers to the time in which the quantity being followed falls by half.

These data come from ChEMBL document CHEMBL1759891, “Structure based design, synthesis and SAR of cyclic hydroxyethylamine (HEA) BACE-1 inhibitors” (Bioorg Med Chem Lett, 2011).
